The term IC50 denotes the point on the concentration scale where inhibition reaches its midpoint.

One assay deals with human recombinant GPR65 (Homo sapiens, UniProt Q8IYL9). The assay is described as follows: Human GPR65 cAMP HTRF antagonist assay.
Chain of human recombinant GPR65 (Q8IYL9 whole entry): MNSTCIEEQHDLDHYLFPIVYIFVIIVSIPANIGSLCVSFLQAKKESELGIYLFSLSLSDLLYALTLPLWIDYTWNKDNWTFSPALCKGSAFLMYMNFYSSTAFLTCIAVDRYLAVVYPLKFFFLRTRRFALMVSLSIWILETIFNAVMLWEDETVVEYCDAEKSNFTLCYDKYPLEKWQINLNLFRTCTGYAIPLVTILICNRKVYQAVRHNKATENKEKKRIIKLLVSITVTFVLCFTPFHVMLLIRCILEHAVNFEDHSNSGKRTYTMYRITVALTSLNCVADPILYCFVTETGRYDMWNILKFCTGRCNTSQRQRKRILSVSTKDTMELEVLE
Details: not given
Format: cell-based. The gist of the method: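 1321N1 astrocytoma cells stably expressing hrGPR65, with IBMX and EDTA, were preincubated with compound 30 min at room temperature, then acid-activated at assay pH 7.2 (control pH 7.9) for 30 min. cAMP read by HTRF (665/620 nm ratio); IC50 from 4-parameter fit normalised to high/low controls.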
Background: TR-FRET usually uses a lanthanide donor and a delayed reading to cut background.
For `O=C(Nc1cc(Cl)c(-c2cnc3nonc3c2)cc1F)N1[C@H]2CC[C@@H]1c1n[nH]c(=O)cc1C2` [Compound 165, (6S,9R)-N-(4-([1,2,5]Oxadiazolo[3,4-b]pyridine-6-yl)-5-chloro-2-fluorophenyl)-3-oxo-3,5,6,7,8,9-hexahydro-2H-6,9-epiminocyclohepta[c]pyridazine-10-carboxamide], the IC50 is below 500 nM. On the same count and under the same terms, the figure for `O=C(Nc1cc(-c2ccccc2)on1)N1[C@H]2CC[C@@H]1c1n[nH]c(=O)cc1C2` [Compound 166, (6S,9R)-3-Oxo-N-(5-phenylisoxazol-3-yl)-3,5,6,7,8,9-hexahydro-2H-6,9-epiminocyclohepta[c]pyridazine-10-carboxamide] is below 500 nM; for `O=C(Nc1cc(Cl)c(-c2ccc3nonc3c2)cc1F)N1[C@H]2CC[C@@H]1c1c[nH]c(=O)cc1C2` [Compound 167, (6S,9R)-N-(4-(Benzo[c][1,2,5]oxadiazol-5-yl)-5-chloro-2-fluorophenyl)-3-oxo-3,5,6,7,8,9-hexahydro-2H-6,9-epiminocyclohepta[c]pyridine-10-carboxamide] it is below 500 nM; for `O=C(Nc1cc(Cl)c(-c2ccc3nsnc3c2)cc1F)N1[C@H]2CC[C@@H]1c1n[nH]c(=O)cc1C2` [Compound 168, (6S,9R)-N-(4-(Benzo[c][1,2,5]thiadiazol-5-yl)-5-chloro-2-fluorophenyl)-3-oxo-3,5,6,7,8,9-hexahydro-2H-6,9-epiminocyclohepta[c]pyridazine-10-carboxamide] it is below 500 nM. For `O=C(Nc1cc(Cl)c(-c2ccc(F)nc2)cc1F)N1[C@H]2CC[C@@H]1c1ccnc(F)c1C2` [Compound 169, (5R,8S)-N-(5-Chloro-2-fluoro-4-(6-fluoropyridin-3-yl)phenyl)-1-fluoro-6,7,8,9-tetrahydro-5H-5,8-epiminocyclohepta[c]pyridine-10-carboxamide], the IC50 is below 500 nM. Regarding `Cc1nc2ccc(-c3cc(F)c(NC(=O)N4[C@H]5CC[C@@H]4c4n[nH]c(=O)cc4C5)cc3Cl)cc2o1` [Compound 170, (6S,9R)-N-(5-Chloro-2-fluoro-4-(2-methylbenzo[d]oxazol-6-yl)phenyl)-3-oxo-3,5,6,7,8,9-hexahydro-2H-6,9-epiminocyclohepta[c]pyridazine-10-carboxamide], the IC50 was below 500 nM. The same measure, in the same setting: as for `COc1ccc(-c2cc(F)c(NC(=O)N3[C@H]4CC[C@@H]3c3n[nH]c(=O)cc3C4)cc2Cl)cn1` [Compound 171, (6S,9R)-N-(5-Chloro-2-fluoro-4-(6-methoxypyridin-3-yl)phenyl)-3-oxo-3,5,6,7,8,9-hexahydro-2H-6,9-epiminocyclohepta[c]pyridazine-10-carboxamide], the figure is below 500 nM.

Take `O=C(Nc1cc(Cl)c(-c2ccc(F)nc2)cc1F)N1[C@H]2CC[C@@H]1c1c[nH]c(=O)cc1C2` [Compound 172, (6S,9R)-N-(5-Chloro-2-fluoro-4-(6-fluoropyridin-3-yl)phenyl)-3-oxo-3,5,6,7,8,9-hexahydro-2H-6,9-epiminocyclohepta[c]pyridine-10-carboxamide]: the IC50 was below 500 nM.

Regarding `O=C(Nc1cc(Cl)c(-c2ccncc2)cc1F)N1[C@H]2CC[C@@H]1c1n[nH]c(=O)cc1C2` [Compound 173, (6S,9R)-N-(5-Chloro-2-fluoro-4-(pyridin-4-yl)phenyl)-3-oxo-3,5,6,7,8,9-hexahydro-2H-6,9-epiminocyclohepta[c]pyridazine-10-carboxamide], the IC50 is below 500 nM. In the case of `CN1CCc2cc(-c3cc(F)c(NC(=O)N4[C@H]5CC[C@@H]4c4n[nH]c(=O)cc4C5)cc3Cl)ccc2C1=O` [Compound 175, (6S,9R)-N-(5-Chloro-2-fluoro-4-(2-methyl-1-oxo-1,2,3,4-tetrahydroisoquinolin-6-yl)phenyl)-3-oxo-3,5,6,7,8,9-hexahydro-2H-6,9-epiminocyclohepta[c]pyridazine-10-carboxamide], the IC50 was below 500 nM. Take `O=C(Nc1cc(Cl)c(-c2ccc3nsnc3c2)cc1F)N1[C@H]2CC[C@@H]1c1c[nH]c(=O)cc1C2` [Compound 176, (6S,9R)-N-(4-(benzo[c][1,2,5]thiadiazol-5-yl)-5-chloro-2-fluorophenyl)-3-oxo-3,5,6,7,8,9-hexahydro-2H-6,9-epiminocyclohepta[c]pyridine-10-carboxamide]: the IC50 is below 500 nM. Consider `O=C(Nc1cc(Cl)c(-c2ccc3nsnc3c2)cc1F)N1[C@H]2CC[C@@H]1c1ccnc(F)c1C2` [Compound 177, (5R,8S)-N-(4-(benzo[c][1,2,5]thiadiazol-5-yl)-5-chloro-2-fluorophenyl)-1-fluoro-6,7,8,9-tetrahydro-5H-5,8-epiminocyclohepta[c]pyridine-10-carboxamide], for which the IC50 is below 500 nM. In the case of `O=C(Nc1cc(Cl)c(-c2cnc(F)nc2)cc1F)N1[C@H]2CC[C@@H]1c1n[nH]c(=O)cc1C2` [Compound 178, (6S,9R)-N-(5-Chloro-2-fluoro-4-(2-fluoropyrimidin-5-yl)phenyl)-3-oxo-3,5,6,7,8,9-hexahydro-2H-6,9-epiminocyclohepta[c]pyridazine-10-carboxamide], the IC50 is below 500 nM.

Take `O=C(Nc1cc(Cl)c(-c2ncco2)cc1F)N1[C@H]2CC[C@@H]1c1n[nH]c(=O)cc1C2` [Compound 181, (6S,9R)-N-(5-Chloro-2-fluoro-4-(oxazol-2-yl)phenyl)-3-oxo-3,5,6,7,8,9-hexahydro-2H-6,9-epiminocyclohepta[c]pyridazine-10-carboxamide]: the IC50 is 500 to 5000 nM. With `O=C(Nc1cc(Cl)c(-c2cc(F)cnc2F)cc1F)N1[C@H]2CC[C@@H]1c1n[nH]c(=O)cc1C2` [Compound 182, (6S,9R)-N-(5-Chloro-4-(2,5-difluoropyridin-3-yl)-2-fluorophenyl)-3-oxo-3,5,6,7,8,9-hexahydro-2H-6,9-epiminocyclohepta[c]pyridazine-10-carboxamide], the IC50 is below 500 nM. Same read-out and setting: as for `COc1ccc(-c2cc(F)c(NC(=O)N3[C@H]4CC[C@@H]3c3c[nH]c(=O)cc3C4)cc2Cl)cn1` [Compound 184, (6S,9R)-N-(5-Chloro-2-fluoro-4-(6-methoxypyridin-3-yl)phenyl)-3-oxo-3,5,6,7,8,9-hexahydro-2H-6,9-epiminocyclohepta[c]pyridine-10-carboxamide], the figure is below 500 nM; as for `COc1ccc(-c2cc(F)c(NC(=O)N3[C@H]4CC[C@@H]3c3ccnc(F)c3C4)cc2Cl)cn1` [Compound 185, (5R,8S)-N-(5-Chloro-2-fluoro-4-(6-methoxypyridin-3-yl)phenyl)-1-fluoro-6,7,8,9-tetrahydro-5H-5,8-epiminocyclohepta[c]pyridine-10-carboxamide], below 500 nM.

For the compound `O=C(Nc1ccc2nsnc2c1)N1[C@H]2CC[C@@H]1c1n[nH]c(=O)cc1C2` [Compound 186, (6S,9R)—N-(benzo[c][1,2,5]thiadiazol-5-yl)-3-oxo-3,5,6,7,8,9-hexahydro-2H-6,9-epiminocyclohepta[c]pyridazine-10-carboxamide], the IC50 lay within 500 to 5000 nM. Still for that read-out and setting: as for `O=C(Nc1noc2ccccc12)N1[C@H]2CC[C@@H]1c1n[nH]c(=O)cc1C2` [Compound 187, (6S,9R)-N-(Benzo[d]isoxazol-3-yl)-3-oxo-3,5,6,7,8,9-hexahydro-2H-6,9-epiminocyclohepta[c]pyridazine-10-carboxamide], the figure is 500 to 5000 nM; as for `COC(=O)c1cncc(-c2cc(F)c(NC(=O)N3[C@H]4CC[C@@H]3c3n[nH]c(=O)cc3C4)cc2Cl)c1` [Compound 188, Methyl 5-(2-chloro-5-fluoro-4-((6S,9R)-3-oxo-3,5,6,7,8,9-hexahydro-2H-6,9-epiminocyclohepta[c]pyridazine-10-carboxamido)phenyl)nicotinate], below 500 nM. The same measure, in the same setting: the figure for `O=C(Nc1cc(Cl)c(-c2cnc3nonc3c2)cc1F)N1[C@H]2CC[C@@H]1c1c[nH]c(=O)cc1C2` [Compound 189, (6S,9R)-N-(4-([1,2,5]oxadiazolo[3,4-b]pyridin-6-yl)-5-chloro-2-fluorophenyl)-3-oxo-3,5,6,7,8,9-hexahydro-2H-6,9-epiminocyclohepta[c]pyridine-10-carboxamide] is below 500 nM; for `O=C(Nc1cc(Cl)c(-c2cnc3nonc3c2)cc1F)N1[C@H]2CC[C@@H]1c1ccnc(F)c1C2` [Compound 190, (5R,8S)-N-(4-([1,2,5]Oxadiazolo[3,4-b]pyridin-6-yl)-5-chloro-2-fluorophenyl)-1-fluoro-6,7,8,9-tetrahydro-5H-5,8-epiminocyclohepta[c]pyridine-10-carboxamide] it is below 500 nM. Still for that read-out and setting: as for `O=C(Nc1cc(Cl)c(-c2ccsn2)cc1F)N1[C@H]2CC[C@@H]1c1n[nH]c(=O)cc1C2` [Compound 191, (6S,9R)-N-(5-Chloro-2-fluoro-4-(isothiazol-3-yl)phenyl)-3-oxo-3,5,6,7,8,9-hexahydro-2H-6,9-epiminocyclohepta[c]pyridazine-10-carboxamide], the figure is below 500 nM.

The assay is the same for the next values; noted with them: 1321N1-hrGPR65 cells, cAMP HTRF, assay pH 7.2; read-out: hGPR65 IC50 (Activity of selected compounds according to the invention).
Take `O=C(Nc1cc(Cl)c(-c2ccnnc2)cc1F)N1[C@H]2CC[C@@H]1c1n[nH]c(=O)cc1C2` [Compound 174, (6S,9R)-N-(5-Chloro-2-fluoro-4-(pyridazin-4-yl)phenyl)-3-oxo-3,5,6,7,8,9-hexahydro-2H-6,9-epiminocyclohepta[c]pyridazine-10-carboxamide]: the 50% inhibitory concentration (IC50) was above 5000 nM.

`N#Cc1cnccc1-c1cc(F)c(NC(=O)N2[C@H]3CC[C@@H]2c2n[nH]c(=O)cc2C3)cc1Cl` [Compound 179, (6S,9R)-N-(5-Chloro-4-(3-cyanopyridin-4-yl)-2-fluorophenyl)-3-oxo-3,5,6,7,8,9-hexahydro-2H-6,9-epiminocyclohepta[c]pyridazine-10-carboxamide]: the IC50 was 500 to 5000 nM.

Regarding `CS(=O)(=O)c1ccc(-c2cc(F)c(NC(=O)N3[C@H]4CC[C@@H]3c3n[nH]c(=O)cc3C4)cc2Cl)cn1` [Compound 180, (6S,9R)-N-(5-Chloro-2-fluoro-4-(6-(methylsulfonyl)pyridin-3-yl)phenyl)-3-oxo-3,5,6,7,8,9-hexahydro-2H-6,9-epiminocyclohepta[c]pyridazine-10-carboxamide], the IC50 was 500 to 5000 nM.
